Reference: patent US20110207773A1, “NOVEL PHENYL-QUINOLINE-CARBOXYLIC ACID PYRIDINE DERIVATIVES USEFUL AS MODULATORS OF NICOTINIC ACETYLCHOLINE RECEPTORS” (NEUROSEARCH A/S, priority 2008, published 2011)
pEC50: −log10 of the molar value.

Key:
[1] = target: T1, wild-type nAChR α7 receptors (Homo sapiens, UniProt P36544); assay: Positive modulation of nAChR α7 currents in Xenopus laevis oocytes, two-electrode voltage clamp; format: cell-based; settings: nAChR α7 expressed in Xenopus laevis oocytes, clamped at −60 mV, 100 μM acetylcholine; for Emax: (test-control)/control×100%, read-out: calculated EC50 Imax (maximal modulation of the control response); for pEC50: test compound 0.01-31.6 μM, read-out: calculated EC50 (positive modulation of acetylcholine-induced current)
T1 construct: expressed in transfected cells; host or cells: Xenopus laevis oocytes
Experimental: In this example the positive modulation of wild-type nAChR α7 receptors by Compounds 4 and 5, representative of the invention, was determined using nAChR α7 receptors heterologously expressed in Xenopus laevis oocytes.
The electrical current through the nAChR α7 channel was measured using conventional two-electrode voltage clamp and nAChR α7 currents were activated by applying pulses of agonist-containing solution onto the nAChR α7 expressing oocyte.
In brief, the oocytes were placed in a recording chambers and continuously super-fused with an Oocyte Ringer (OR) solution containing 90 mM NaCl, 2.5 mM KCl, 2.5 mM CaCl2, 1 mM MgCl2 and 5 mM HEPES (pH adjusted to 7.4). The oocytes were clamped at −60 mV and currents were induced by applying 20 s pulses of 100 μM acetylcholine dissolved in OR. The intervals between the acetylcholine applications were 5 minutes, during which the oocytes were washed with OR. The first three applications were control applications to insure a constant response level of 100 μM acetylcholine. For the subsequent test applications, increasing concentrations (0.01-31.6 μM) of the test compound were applied 30 s before and during the acetylcholine (100 μM) application, which caused a robust increase in the acetylcholine-induced current amplitude.
The positive modulation in the presence of Compound 4 was calculated as (test-control)/control×100% and the concentration response curve for this positive modulation was fitted to the sigmoidal logistic equation: I=Imax/(1+(EC50/[compound])^n), where Imax represents the maximal modulation of the control response, EC50 is the concentration causing a half maximal response, and n is the slope coefficient.

T1 sequence (P36544 23-502): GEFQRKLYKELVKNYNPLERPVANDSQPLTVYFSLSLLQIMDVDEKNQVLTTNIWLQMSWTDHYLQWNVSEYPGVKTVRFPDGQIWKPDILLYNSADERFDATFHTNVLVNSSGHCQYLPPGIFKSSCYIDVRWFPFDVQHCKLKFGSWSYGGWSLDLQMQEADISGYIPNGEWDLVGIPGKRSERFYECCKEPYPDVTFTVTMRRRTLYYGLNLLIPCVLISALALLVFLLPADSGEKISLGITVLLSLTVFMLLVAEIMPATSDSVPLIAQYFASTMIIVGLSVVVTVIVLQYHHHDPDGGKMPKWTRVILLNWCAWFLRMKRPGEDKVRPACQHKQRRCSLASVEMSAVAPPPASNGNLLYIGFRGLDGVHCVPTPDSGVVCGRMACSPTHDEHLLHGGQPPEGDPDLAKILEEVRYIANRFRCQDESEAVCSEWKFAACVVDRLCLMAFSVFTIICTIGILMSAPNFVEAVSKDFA

Row | Emax [1] [%] | pEC50 [1] | melting point [°C] | SMILES
1 | 283 | 5.43 |  | COc1ccc(-c2cc(C(=O)Nc3cccc(F)n3)c3ccccc3n2)cc1 [Compound 4, 2-(4-Methoxy-phenyl)-quinoline-4-carboxylic acid (6-fluoro-pyridin-2-yl)-amide]
2 | 197 | 5.92 |  | COc1ccc(-c2cc(C(=O)Nc3cccc(F)n3)c3ccccc3n2)cc1OC [Compound 5, 2-(3,4-Dimethoxy-phenyl)-quinoline-4-carboxylic acid (6-fluoro-pyridin-2-yl)-amide]
3 |  |  | 182.4 to 183.7 | Cc1ccc(NC(=O)c2cc(-c3ccc(Br)cc3)nc3ccccc23)nc1 [Compound 7, 2-(4-Bromo-phenyl)-quinoline-4-carboxylic acid (5-methyl-pyridin-2-yl)-amide]
4 |  |  | 201.8 to 202.8 | COc1ccc(-c2cc(C(=O)Nc3cccc(F)n3)c3cccc(F)c3n2)cc1 [Compound 8, 8-Fluoro-2-(4-methoxy-phenyl)-quinoline-4-carboxylic acid (6-fluoro-pyridin-2-yl)-amide]
5 |  |  | 254 to 256 | O=C(Nc1cccc(F)n1)c1cc(-c2ccc(O)cc2)nc2c(F)cccc12 [Compound 9, 8-Fluoro-2-(4-hydroxy-phenyl)-quinoline-4-carboxylic acid (6-fluoro-pyridin-2-yl)-amide]
6 |  |  | 161.2 to 162.9 | COc1ccc(-c2cc(C(=O)Nc3cccc(F)n3)c3cc(F)ccc3n2)cc1 [Compound 10, 6-Fluoro-2-(4-methoxy-phenyl)-quinoline-4-carboxylic acid (6-fluoro-pyridin-2-yl)-amide]
7 |  |  | 209.9 to 210.6 | O=C(Nc1cccc(F)n1)c1cc(-c2ccc3c(c2)OCCO3)nc2ccccc12 [Compound 13, 2-(2,3-Dihydro-benzo[1,4]dioxin-6-yl)-quinoline-4-carboxylic acid (6-fluoro-pyridin-2-yl)-amide]
